Experimental data as given in publication PMC5077133, “Towards Development of Small Molecule Lipid II Inhibitors as Novel Antibiotics” (PLoS ONE, 2016).

What was measured:
A. baumanii ATCC 19606 = experiment: Antibacterial activity (MIC, broth dilution); format: cell-based, Acinetobacter baumanii; conditions: CLSI, in µg/mL
From the text: Staphylococcus aureus ATCC 29213, Escherichia coli ATCC 25922, Enterococcus faecalis ATCC 29212, Streptococcus pneumonia ATCC 49619 and Acinetobacter baumanii ATCC 19606 were obtained from Microbiologics (St. Cloud, MN). E. faecalis ATCC 51575, ATCC 51299 and REMEL C99707 and E. faecium ATCC 51559 (MDR), REMEL IH79985 and REMEL C110914 were generously provided by the Laboratory of Pathology, University of Maryland Baltimore School of Medicine. Unless stated otherwise, chemicals and reagents were purchased from Sigma.
(§1) Determination of the Minimal Inhibitory Concentrations (MIC) by dilution was carried out by broth dilution according to CLSI standards.

E. aerogenes ATCC 13048 = experiment: Antibacterial activity (MIC, broth dilution); format: cell-based; conditions: CLSI
Description: as §1

E. cloacae ATCC 13047 = experiment: Antibacterial activity (MIC, broth dilution); format: cell-based; conditions: CLSI
Description: as §1

E. faecium EF1509 (VRE) = experiment: Antibacterial activity (MIC, broth dilution); format: cell-based; conditions: CLSI, in µg/mL
Description: as §1

E. faecium F118 (VRE) = experiment: Antibacterial activity (MIC, broth dilution); format: cell-based; conditions: CLSI, in µg/mL
Description: as §1

[1] = test system: K. pneumoniae NR-15410 (KPC); experiment: Antibacterial activity (MIC, broth dilution); format: cell-based; conditions: CLSI
Description: as §1

[2] = test system: K. pneumoniae NR-15411 (KPC); experiment: Antibacterial activity (MIC, broth dilution); format: cell-based; conditions: CLSI
Description: as §1

P. aeruginosa ATCC 27853 = experiment: Antibacterial activity (MIC, broth dilution); format: cell-based; conditions: CLSI
Description: as §1

P. aeruginosa PA01 = experiment: Antibacterial activity (MIC, broth dilution); format: cell-based; conditions: CLSI
Description: as §1

P. aeruginosa X13273 = experiment: Antibacterial activity (MIC, broth dilution); format: cell-based; conditions: CLSI, in µg/mL
Description: as §1

[3] = test system: S. aureus HFH-30123 (MRSA); experiment: Antibacterial activity (MIC, broth dilution); format: cell-based; conditions: CLSI
Description: as §1

S. aureus MRSA 1094 = experiment: Antibacterial activity (MIC, broth dilution); format: cell-based; conditions: CLSI
Description: as §1

HeLa cells = experiment: Cytotoxicity against mammalian cells (MTS assay); format: cell-based
Description: The cytotoxicity concentration of antibacterial compounds that produces half maximal decrease in viability (CC50) against mammalian cells (HeLa, ATCC CCL-2.2) was determined as described. The effect of compounds on HeLa cell viability was assessed in triplicate by measuring the mitochondrial activity using MTS assays according to the manufacturer’s instructions (Cell Titer 96 proliferation assay, Promega). The cells were incubated for 72 hours in RPMI1640 medium containing the compounds at final concentrations ranging from 64 to 0.125 μg/ml. CC50 was determined using a standard curve of serially diluted untreated cells in each experiment.

[4] = Lipid II binding by Surface Plasmon Resonance; conditions: SPR, immobilized 3-Lipid II, 25°C
Description: Short-chain water-soluble Lipid II containing a lipid tail of three isoprene units was generated and purified essentially as described. Typically, M. flavus vesicles (120 μmol lipid-Pi) were incubated together with 500 μmol UDP-GlcNAc, 500 μmol UDP-MurNAC-pentapeptide and 400 μmol farnesyl phosphate in 100 mM Tris-HCl pH 8.0, 5 mM MgCl2. The incubation lasted two hours at room temperature for 3-P. The synthesis of 3-Lipid II was followed using RP-8 reversed phase TLC (Merck) developed in 75% methanol. For purification, the membranes were removed by centrifugation at 40,000 x g and the supernatant was collected and loaded on a C18 HPLC column and eluted with a linear gradient from 50 mM ammonium bicarbonate to 100% methanol in 30 minutes. Farnesyl-Lipid II (3-Lipid II) eluted at approximately 60% methanol. Its identity was confirmed by mass spectroscopy. Surface Plasmon Resonance binding experiments were carried out on a BIAcore T100 system (BIAcore Inc., Piscataway, NY) at 25°C. The assay buffer was 10 mM HEPES, 150 mM NaCl, 0.05% surfactant P20, pH 7.4 (± 3 mM EDTA) supplemented with 10% DMSO. 3-Lipid II (50 RUs) was immobilized on CM5 sensor chips using the amine-coupling chemistry recommended by the manufacturer. For initial determination of binding, compounds were introduced into the flow-cells (30 μl/min) in the running buffer at 10 μM. Resonance signals were corrected for nonspecific binding by subtracting the background of the control flow-cell. After each analysis, the sensor chip surfaces were regenerated with 50 mM NaOH for 30 s at a flow rate 100 μl/min, and equilibrated with the buffer prior to next injection. For binding kinetics studies, binding isotherms were analyzed with manufacturer-supplied software for BIAcore T100.

SMILES | Antibacterial activity (MIC) A. baumanii ATCC 19606 (A. baumanii ATCC 19606) | Antibacterial activity (MIC) E. aerogenes ATCC 13048 (E. aerogenes ATCC 13048) | Antibacterial activity (MIC) E. cloacae ATCC 13047 (E. cloacae ATCC 13047) | Antibacterial activity (MIC) E. faecium EF1509 (VRE) (E. faecium EF1509 (VRE)) | Antibacterial activity (MIC) E. faecium F118 (VRE) (E. faecium F118 (VRE)) | Antibacterial activity (MIC) K. pneumoniae NR-15410 (KPC) [1] | Antibacterial activity (MIC) K. pneumoniae NR-15411 (KPC) [2] | Antibacterial activity (MIC) P. aeruginosa ATCC 27853 (P. aeruginosa ATCC 27853) | Antibacterial activity (MIC) P. aeruginosa PA01 (P. aeruginosa PA01) | Antibacterial activity (MIC) P. aeruginosa X13273 (P. aeruginosa X13273) | Antibacterial activity (MIC) S. aureus HFH-30123 (MRSA) [3] | Antibacterial activity (MIC) S. aureus MRSA 1094 (S. aureus MRSA 1094) | Kd [4] | Lipid II binding Kd [4] | CC50% (72 h HeLa cells) (HeLa cells)
Cc1cc(/C=C/c2ccc(N(C)C)cc2)cc(C)[o+]1.F[B-](F)(F)F [6jc37] | >=64 | ≥ 64 µg/mL | ≥ 64 µg/mL | 64 | 64 | ≥ 64 µg/mL | ≥ 64 µg/mL | ≥ 64 µg/mL | ≥ 64 µg/mL | >=64 | 16 µg/mL | 16 µg/mL | – | No | 18.96
C(=C\c1c[nH]c2ccccc12)/c1cc(-c2ccccc2)cc(-c2ccccc2)[o+]1.F[B-](F)(F)F [Jc-49-1] | >=64 | ≥ 64 µg/mL | ≥ 64 µg/mL | 16 | 16 | ≥ 64 µg/mL | ≥ 64 µg/mL | ≥ 64 µg/mL | ≥ 64 µg/mL | >=64 | 8 µg/mL | 8 µg/mL | 170 ± 50 nM | – | 2.2
CN(C)c1ccc(/C=C/C=C/c2cc(-c3ccc(Br)cc3)cc(-c3ccc(Br)cc3)[o+]2)cc1.F[B-](F)(F)F [6jc48-2] | >=64 | ≥ 64 µg/mL | ≥ 64 µg/mL | 4 | 16 | ≥ 64 µg/mL | ≥ 64 µg/mL | ≥ 64 µg/mL | ≥ 64 µg/mL | >=64 | ≥ 64 µg/mL | ≥ 64 µg/mL | 1140 ± 300 nM | – | 60.51
Cc1cc(/C=C/C=C/c2ccc(N(C)C)cc2)cc(C)[o+]1.F[B-](F)(F)F [6jc38] | >=64 | ≥ 64 µg/mL | ≥ 64 µg/mL | >=64 | >=64 | ≥ 64 µg/mL | ≥ 64 µg/mL | ≥ 64 µg/mL | ≥ 64 µg/mL | >=64 | ≥ 64 µg/mL | 64 µg/mL | – | No | >32

The next lines start with results.

Antibacterial activity (MIC) A. baumanii ATCC 19606 (A. baumanii ATCC 19606) | Antibacterial activity (MIC) E. aerogenes ATCC 13048 (E. aerogenes ATCC 13048) | Antibacterial activity (MIC) E. cloacae ATCC 13047 (E. cloacae ATCC 13047) | Antibacterial activity (MIC) E. faecium EF1509 (VRE) (E. faecium EF1509 (VRE)) | Antibacterial activity (MIC) E. faecium F118 (VRE) (E. faecium F118 (VRE)) | Antibacterial activity (MIC) K. pneumoniae NR-15410 (KPC) [1] | Antibacterial activity (MIC) K. pneumoniae NR-15411 (KPC) [2] | Antibacterial activity (MIC) P. aeruginosa ATCC 27853 (P. aeruginosa ATCC 27853) | Antibacterial activity (MIC) P. aeruginosa PA01 (P. aeruginosa PA01) | Antibacterial activity (MIC) P. aeruginosa X13273 (P. aeruginosa X13273) | Antibacterial activity (MIC) S. aureus HFH-30123 (MRSA) [3] | Antibacterial activity (MIC) S. aureus MRSA 1094 (S. aureus MRSA 1094) | Kd [4] | Lipid II binding Kd [4] | SMILES | CC50% (72 h HeLa cells) (HeLa cells)
>=64 | ≥ 64 µg/mL | ≥ 64 µg/mL | 8 | 8 | ≥ 64 µg/mL | ≥ 64 µg/mL | ≥ 64 µg/mL | ≥ 64 µg/mL | >=64 | 8 µg/mL | 8 µg/mL | 37900 ± 4000 nM | – | CN(C)c1ccc(/C=C/c2cc(-c3ccc(C(C)(C)C)cc3)cc(-c3ccc(C(C)(C)C)cc3)[o+]2)cc1.F[B-](F)(F)F [6jc-60-1] | <.78125
32 | ≥ 64 µg/mL | ≥ 64 µg/mL | 0.5 | 2 | 64 µg/mL | ≥ 64 µg/mL | ≥ 64 µg/mL | ≥ 64 µg/mL | >=64 | 4 µg/mL | 2 µg/mL | 9500 ± 2000 nM | – | Cc1ccc(-c2cc(/C=C/C=C/c3ccc(N(C)C)cc3)[o+]c(-c3ccc(C)cc3)c2)cc1.F[B-](F)(F)F [6jc51-2] | <.78125
11.31 | 32 µg/mL | 64 µg/mL | 2 | 4 | 64 µg/mL | ≥ 64 µg/mL | 64 µg/mL | 64 µg/mL | 64 | 2 µg/mL | 2.83 µg/mL | 2170 ± 200 nM | – | Cc1ccc(-c2cc(/C=C/c3cc4c5c(c3)CCCN5CCC4)[o+]c(-c3ccc(C)cc3)c2)cc1.F[B-](F)(F)F [6jc65-1] | <.78125
16 | ≥ 64 µg/mL | ≥ 64 µg/mL | 4 | 4 | 64 µg/mL | ≥ 64 µg/mL | ≥ 64 µg/mL | ≥ 64 µg/mL | >=64 | 4 µg/mL | 2 µg/mL | 39000 ± 4000 nM | – | CN(C)c1ccc(/C=C/c2cc(-c3ccccc3)cc(-c3ccccc3)[o+]2)cc1.F[B-](F)(F)F [6jc39] | 1.31
>=64 | ≥ 64 µg/mL | ≥ 64 µg/mL | 2.83 | 4 | ≥ 64 µg/mL | ≥ 64 µg/mL | ≥ 64 µg/mL | ≥ 64 µg/mL | >=64 | 4 µg/mL | 4 µg/mL | 600 ± 100 nM | – | Cc1ccc(-c2cc(/C=C/c3cc4c5c(c3)CCCN5CCC4)[o+]c(-c3ccc(C)c(C)c3)c2)cc1C.F[B-](F)(F)F [6jc-69-3] | <.78125
